Source: article PMC4180945 (Tetrahedron, 2014)

Tests used:
[1] = biological target: maltose-binding protein-XIAP BIR3 domain fusion (MBP-BIR3) (Homo sapiens, UniProt P98170); experiment: Selectivity binding to arbitrarily selected protein: MBP-BIR3
[2] = biological target: T1, protein-tyrosine phosphatase 1B (PTP1B) (Homo sapiens, UniProt P18031); experiment: Selectivity binding to arbitrarily selected protein: PTP1B
T1 sequence (P18031 1-435): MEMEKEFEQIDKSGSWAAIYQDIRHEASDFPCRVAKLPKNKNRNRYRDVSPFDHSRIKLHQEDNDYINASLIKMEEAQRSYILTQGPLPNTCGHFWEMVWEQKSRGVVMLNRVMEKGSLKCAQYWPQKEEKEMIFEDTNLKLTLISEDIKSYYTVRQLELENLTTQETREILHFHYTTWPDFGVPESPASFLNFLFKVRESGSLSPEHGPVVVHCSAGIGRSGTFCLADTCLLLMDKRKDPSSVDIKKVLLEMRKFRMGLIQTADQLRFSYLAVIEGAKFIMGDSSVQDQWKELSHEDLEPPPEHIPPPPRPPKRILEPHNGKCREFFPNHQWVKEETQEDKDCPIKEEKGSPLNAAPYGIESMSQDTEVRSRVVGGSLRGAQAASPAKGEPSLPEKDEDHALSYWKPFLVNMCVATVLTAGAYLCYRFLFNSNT

[3] = biological target: T2, GST-SHD SH2 domain fusion protein (Homo sapiens, UniProt Q96IW2); experiment: Selectivity binding to arbitrarily selected protein: GST-SHD SH2
T2 sequence (Q96IW2 240-335 limits assumed): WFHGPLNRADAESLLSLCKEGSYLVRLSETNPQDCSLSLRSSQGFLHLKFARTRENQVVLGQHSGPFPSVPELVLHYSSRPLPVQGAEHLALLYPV

[4] = biological target: GST-FKBP12 fusion protein (Homo sapiens, UniProt P62942); experiment: Selectivity binding to arbitrarily selected protein: GST-FKBP12
Sequence of GST-FKBP12 fusion protein (P62942 whole entry, the tested form may be a part): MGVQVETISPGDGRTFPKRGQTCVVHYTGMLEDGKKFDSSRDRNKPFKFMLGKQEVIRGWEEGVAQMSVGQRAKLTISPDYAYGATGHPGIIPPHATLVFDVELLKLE

[5] = biological target: bovine serum albumin (BSA) (Bos taurus, UniProt P02769); experiment: Selectivity binding to arbitrarily selected protein: BSA
Sequence of bovine serum albumin (BSA) (P02769 25-607): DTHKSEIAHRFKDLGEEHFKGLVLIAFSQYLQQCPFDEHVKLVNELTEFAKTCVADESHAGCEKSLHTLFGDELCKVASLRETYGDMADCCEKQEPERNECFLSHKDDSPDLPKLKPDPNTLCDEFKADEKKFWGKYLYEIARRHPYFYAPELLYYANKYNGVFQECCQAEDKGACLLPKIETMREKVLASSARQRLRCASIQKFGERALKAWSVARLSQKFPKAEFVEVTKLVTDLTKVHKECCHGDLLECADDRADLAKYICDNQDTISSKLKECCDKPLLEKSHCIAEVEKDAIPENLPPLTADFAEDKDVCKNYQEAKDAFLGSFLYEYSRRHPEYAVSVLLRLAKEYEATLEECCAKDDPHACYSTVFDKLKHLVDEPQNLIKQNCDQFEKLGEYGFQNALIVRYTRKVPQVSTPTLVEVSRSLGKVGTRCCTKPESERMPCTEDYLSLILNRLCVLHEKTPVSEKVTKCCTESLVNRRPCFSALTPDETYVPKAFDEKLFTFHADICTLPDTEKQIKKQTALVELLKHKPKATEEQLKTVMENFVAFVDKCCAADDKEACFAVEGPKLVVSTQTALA

Sequence of maltose-binding protein-XIAP BIR3 domain fusion (MBP-BIR3) (P98170 241-356 limits assumed): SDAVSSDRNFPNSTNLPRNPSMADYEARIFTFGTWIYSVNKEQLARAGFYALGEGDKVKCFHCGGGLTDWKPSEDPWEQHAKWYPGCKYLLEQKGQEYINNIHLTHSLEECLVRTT

Trp-phe-Asp-Lys-phe-asn-His-Dap [Peptide 38]
Fold higher KD for MBP-BIR3 than that of K-Ras [1]: 47-120 fold | Binding to PTP1B [2]: no binding | Fold higher KD for GST-SHD SH2 than that of K-Ras [3]: 47-120 fold | Binding to GST-FKBP12 [4]: no binding | Fold higher KD for BSA than that of K-Ras [5]: 47-120 fold
